Experiments:
[1] = biological target: T1, IKur (ultra-rapidly-activating delayed rectifier K^+ current) (Homo sapiens, UniProt P22460); assay: Voltage-clamp measurement of IKur in isolated human atrial myocytes; type: cell-based; settings: rested state block, first pulse; 150 ms pulses to +40 mV from -50 mV; room temperature (22-24° C); read-out: Rested State IC50, IKur in Human Atrium
T1 construct: isolated human atrial myocytes; from tissue; host or cells: isolated myocytes from human right atrial appendage
T1 sequence (P22460 whole entry): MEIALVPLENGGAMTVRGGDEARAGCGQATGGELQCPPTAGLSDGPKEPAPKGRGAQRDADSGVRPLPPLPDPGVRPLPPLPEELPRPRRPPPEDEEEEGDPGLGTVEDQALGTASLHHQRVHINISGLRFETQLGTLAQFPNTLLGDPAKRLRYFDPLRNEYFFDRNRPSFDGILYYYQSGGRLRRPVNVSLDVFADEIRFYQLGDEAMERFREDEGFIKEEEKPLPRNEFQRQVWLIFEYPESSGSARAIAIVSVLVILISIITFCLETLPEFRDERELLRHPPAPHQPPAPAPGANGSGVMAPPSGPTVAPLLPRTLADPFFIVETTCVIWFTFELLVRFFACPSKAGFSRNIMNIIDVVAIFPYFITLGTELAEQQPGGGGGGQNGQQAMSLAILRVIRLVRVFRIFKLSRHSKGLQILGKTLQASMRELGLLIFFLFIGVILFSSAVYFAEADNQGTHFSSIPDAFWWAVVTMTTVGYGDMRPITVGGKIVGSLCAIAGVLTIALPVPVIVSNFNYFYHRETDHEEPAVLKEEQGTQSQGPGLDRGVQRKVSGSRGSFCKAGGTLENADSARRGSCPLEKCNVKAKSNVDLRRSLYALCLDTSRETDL
Protocol: J. Physiol. […] All tissues were collected in accordance with Temple University School of Medicine Institutional guidelines. […] Tissue samples were quickly immersed in cold (0-4° C.) cardioplegia solution containing (in mM/L): 50 KH2 PO4, 8 MgSO4, 10 NaHCO3, 5 adenosine, 25 taurine, 140 glucose, and 100 mannitol, pH 7.4 and bubbled with 100% O2. […] The tissue was gently agitated by continuous bubbling with 100% O2 for 5 min. […] The supernatant was removed after 40 min and discarded. The chunks were then incubated in a solution of the same ionic composition but supplemented with only collagenase and […] CaCl2. Microscopic examination of the medium was performed every 10-20 min to determine the number and quality of isolated cells. […] The supernatant was collected in a 50 ml centrifuge tube. […] Cells were used within 2-24 hr after isolation.
A small aliquot of the solution containing the isolated human atrial myocytes was placed in a 1-ml chamber mounted on the stage of an inverted microscope. Five minutes were allowed for cell adhesion to the bottom of the chamber. To record IKur, human atrial myocytes were superfused with a solution of the same ionic composition as that used for Kv1.5. An alternative external solution was sometimes used in which NaCl was replaced with NMDG (formal name: N-methyl-d-glucamine) to inhibit INa.
The amplitude of IKur was measured as the amplitude of the time-dependentcurrent at the end of the test pulse, relative to the holding current level. […] All experiments were performed at room temperature (22-24° C.).

[2] = biological target: T2, IKs (slowly activating delayed rectifier K^+ current) (Cavia porcellus, UniProt O70344); assay: Voltage-clamp measurement of IKs in guinea pig ventricular myocytes; type: cell-based; settings: read-out: % Block (Guinea Pig Ventricle) IKs
T2 construct: Guinea pig ventricular myocytes were isolated; from tissue; host or cells: isolated guinea pig ventricular myocytes
T2 sequence (O70344 whole entry): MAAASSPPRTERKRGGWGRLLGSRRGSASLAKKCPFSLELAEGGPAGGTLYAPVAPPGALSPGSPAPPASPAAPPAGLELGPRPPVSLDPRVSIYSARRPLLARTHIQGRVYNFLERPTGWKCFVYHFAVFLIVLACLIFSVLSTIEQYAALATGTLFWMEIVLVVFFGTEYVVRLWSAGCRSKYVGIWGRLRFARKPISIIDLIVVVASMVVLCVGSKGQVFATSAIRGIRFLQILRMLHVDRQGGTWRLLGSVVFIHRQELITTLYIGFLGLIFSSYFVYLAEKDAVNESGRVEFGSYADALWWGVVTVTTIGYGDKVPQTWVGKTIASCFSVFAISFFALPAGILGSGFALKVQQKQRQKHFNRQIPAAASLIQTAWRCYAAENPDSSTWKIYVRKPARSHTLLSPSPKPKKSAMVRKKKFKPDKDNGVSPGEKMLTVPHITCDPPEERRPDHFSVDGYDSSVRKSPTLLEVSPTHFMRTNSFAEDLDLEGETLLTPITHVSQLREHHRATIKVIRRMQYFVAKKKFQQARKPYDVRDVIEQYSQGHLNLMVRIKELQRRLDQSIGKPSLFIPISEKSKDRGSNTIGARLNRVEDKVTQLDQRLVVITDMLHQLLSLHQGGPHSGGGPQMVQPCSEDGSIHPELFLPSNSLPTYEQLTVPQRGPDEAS
T2 sequence (Q60409 whole entry partner): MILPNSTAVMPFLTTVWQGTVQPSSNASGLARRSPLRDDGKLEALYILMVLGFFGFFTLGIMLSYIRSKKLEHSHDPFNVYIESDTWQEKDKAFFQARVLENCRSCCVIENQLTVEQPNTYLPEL
Protocol: Guinea pig ventricular myocytes were isolated using a modification of the procedure described by Mitra et al., Am. J. Physiol. 249:H1056-60 (1985). Excised hearts were perfused through the aorta (retrograde fashion) at a rate of 10 ml/min with oxygenated, warmed (37° C.) solutions described below. The heart was initially perfused for 7 minutes with a Tyrode's solution containing, (in mM): 132 NaCl, 4 KCl, 1.2 MgCl2, 10 HEPES, 5 glucose, pH=7.2. The heart was then perfused with the same nominally Ca^2+ -free solution containing 150 units/ml Type II collagenase (Worthington) and 0.5 units/ml Type XIV protease (Sigma) for 8 minutes. This perfusate was followed by a Tyrode's solution containing 0.2 mM CaCl2 (without enzymes) for 5 minutes. The digested ventricles were cut into small pieces and gently shaken until cells were visibly dispersed. The cells were stored at room temperature until use, within 8 hours after isolation.
The suction microelectrode technique described by Giles, W. R. and Shibata, E. F., "Voltage clamp of bull-frog cardiac pacemaker cells: a quantitative analysis of potassium currents", J. Physiol. 368:265-292 (1985) was used to voltage clamp the cells. Microelectrodes were made by using a two stage puller from square bore (1.0 mm o.d.) borosilicate capillary tubing. Pipettes were filled with 0.5 M K gluconate, 25 mM KCl and 5 mM K2 ATP. The electrodes had resistances of 3 to 7 M.OMEGA. when filled with this solution. After establishing whole-cell recording mode, negative pressure was maintained on the pipette using a 1 ml gas-tight syringe attached via air tight tubing to the suction port of the microelectrode holder. This minimized dialysis of the cell with the pipette solution.
To record K^+ currents, the cells were bathed in a Ca^2+ -free Tyrode's solution containing […]. […] To record Ca^2+ currents, the cells were bathed in Tyrode's solution containing 1.8 mM Ca^2+ without nisoldipine. The cell chamber was superfused with solutions at a rate of 1-2 ml/minute, while maintaining the temperature at 35±1° C. A List EPC-7 clamp amplifier was used to voltage clamp the isolated cells. […] (Sanguinetti M. C. and Jurkiewicz, N. K., "Two components of cardiac delayed rectifier K^+ current: Differential sensitivity to block by Class III antiarrhythmic agents", J. Gen Physiol 1990; 96:194-214.) Data was analyzed as % block from control membrane currents.
Nisoldipine was prepared as a 4 mM stock solution in polyethylene glycol 200. […] At the final concentrations used neither polyethylene glycol 200 nor dimethyl sulfoxide had any effect on any of the measured membrane currents.
Selectivity for block of cardiac K^+ channels, IK1, IKr, and IKs was determined as previously described in guinea pig ventricular myocytes (U.S. Pat. No. 5,428,031).

SMILES | IC50 [1] | inhibition at 10 µM ([2]; @ 10 μM) | inhibition at 3 µM [2]
COc1ccc(-n2nc(Sc3ccc(Cl)cc3)c(C)c(C#N)c2=O)cc1 [Compound A, 6-(4-Chlorophenylthio)-2-(4-methoxyphenyl)-5-methyl-3-oxo-2,3-dihydropyridazine-4-carbonitrile] | 230 nM | 4% | 
COc1ccc(-n2nc(Sc3ccc(C)cc3)c(C)c(C#N)c2=O)cc1 [Compound B] | 80 nM |  | 13.6%
Cc1cc(C)c(CP(=O)(c2ccccc2)c2ccccc2)c(-c2ccc(F)c(C)c2)c1 [Compound C, 2-(Diphenylphosphinylmethyl)-4'-fluoro-3,5,3'-trimethyl-biphenyl] | 780 nM |  | 12.2%

— patent publication US5935945A, “Methods of treating or preventing cardiac arrhythmia” (Merck & Co., Inc., priority 1997, dated 1999)
